From article PMC6891762, “Novel Isoxazolidine and γ-Lactam Analogues of Homonucleosides” (Molecules, 2019)

Experiments:
Format in all cases: cell-based
[1] = system: Hap1 (chronic myeloid leukemia) cells; assay: Cytostatic activity, Hap1; conditions: concentration causing 50% decrease in cell proliferation
Method: (§1) The 50% cytostatic inhibitory concentration (IC50) causing a 50% decrease in cell proliferation was determined for all isolated isoxazolidines 14 and γ-lactams 15 toward nine cancerous cell lines (Capan-1 (pancreatic adenocarcinoma), Hap1 (chronic myeloid leukemia), HCT-116 (colorectal carcinoma), NCI-H460 (lung carcinoma), DND-41 (acute lymphoblastic leukemia), HL-60 (acute myeloid leukemia), K-562 (chronic myeloid leukemia), MM.1S (multiple myeloma) and Z-138 (non-Hodgkin lymphoma)) and normal retina (non-cancerous) cells (hTERT RPE-1). Docetaxel, etoposide and stauroporine were used as the reference compounds.
(§2) All assays were performed in 96-well microtiter plates. To each well was added (5−7.5) × 10^4 tumor cells and a given amount of the test compound. The cells were allowed to proliferate at 37 °C in a humidified, CO2-controlled atmosphere. At the end of the incubation period, the cells were counted in a Coulter counter. The IC50 (50% inhibitory concentration) was defined as the concentration of the compound that inhibited cell proliferation by 50%.

[2] = system: HCT-116 (colorectal carcinoma) cells; assay: Cytostatic activity, HCT-116; conditions: concentration causing 50% decrease in cell proliferation
Method: as §1, §2

[3] = system: NCI-H460 (lung carcinoma) cells; assay: Cytostatic activity, NCI-H460; conditions: concentration causing 50% decrease in cell proliferation
Method: as §1, §2

[4] = system: Capan-1 (pancreatic adenocarcinoma) cells; assay: Cytostatic activity, Capan-1
Method: as §1, with “RPE-1).” for “RPE-1). Docetaxel, etoposide and stauroporine were used as the reference compounds.”
as §2, with “counter.” for “counter. The IC50 (50% inhibitory concentration) was defined as the concentration of the compound that inhibited cell proliferation by 50%.”

[5] = system: hTERT RPE-1 normal retina (non-cancerous) cells; assay: Cytostatic activity, normal retina cells; conditions: concentration causing 50% decrease in cell proliferation
Method: as §1, §2

[6] = concentration causing 50% decrease in cell proliferation
[7] = Homo sapiens, CAPAN-1, concentration causing 50% decrease in cell proliferation

IC50 [1]	IC50 [2]	IC50 [3]	IC50 [4, 6]	IC50 ([1]; Homo sapiens, HAP1)	IC50 ([2]; Homo sapiens, HCT-116)	IC50 ([3]; Homo sapiens, NCI-H460)	IC50 [4, 7]	IC50 (µM) HCT-116 Colorectal Carcinoma [2]	Structure (SMILES)	IC50 [5]	IC50 ([5]; hTERT-RPE1)
47 µM	53.5 µM	41.1 µM	41.4 µM	–	–	–	–	–	COC(=O)[C@H]1C[C@H](Cn2cc(I)c(=O)[nH]c2=O)N(C)O1 (relative stereo) [trans-14f, Methyl trans-3-{[5-iodo-2,4-dioxo-3,4–dihydropyrimidin-1(2H)-yl]metyl}-2-methylisoxazolidine-5-carboxylate]	> 100 µM	–
–	–	–	21.5 µM	50.2 µM	43.5 µM	42.5 µM	18.2 µM	–	CN1C(=O)[C@H](O)C[C@@H]1Cn1cnc2c(=O)n(C)c(=O)n(C)c21 (relative stereo) [cis-15h, cis-9-[(4-Hydroxy-1-methyl-5-oxopyrrolidin-2-yl)methyl]-1,3-dimethyl-3,9–dihydro-1H-purine-2,6-dione]	–	> 100 µM
–	–	–	–	63 µM	> 100 µM	60.3 µM	55.2 µM	–	COC(=O)[C@@H]1C[C@H](Cn2cc(C)c(=O)[nH]c2=O)N(C)O1 (relative stereo) [cis-14b, Methyl cis-2-methyl-3-{[5-methyl-2,4-dioxo-3,4–dihydropyrimidin-1(2H)-yl]methyl}isoxazolidine-5-carboxylate]	–	> 100 µM
–	–	–	–	45.1 µM	49 µM	33.2 µM	62.2 µM	–	COC(=O)[C@@H]1C[C@H](Cn2cnc3c(=O)n(C)c(=O)n(C)c32)N(C)O1 (relative stereo) [cis-14h, Methyl cis-3-[(1,3-dimethyl-2,6-dioxo-1,2,3,6-tetrahydro-9H-purin-9-yl)methyl]-2-methylisoxazolidine-5-carboxylate]	–	> 100 µM
–	–	–	–	51.5 µM	58.5 µM	28.6 µM	28 µM	inhibited the proliferation	CN1C(=O)[C@H](O)C[C@@H]1Cn1cc(Cl)c(=O)[nH]c1=O (relative stereo) [cis-15e, cis-5-Chloro-1-[(4-hydroxy-1-methyl-5-oxopyrrolidin-2-yl)methyl]pyrimidine-2,4(1H,3H)-dione]	–	> 100 µM
–	–	–	–	> 100 µM	> 100 µM	> 100 µM	51.3 µM	–	COC(=O)[C@H]1C[C@H](Cn2cc(C)c(=O)[nH]c2=O)N(C)O1 (relative stereo) [trans-14b, Methyl trans-2-methyl-3-{[5-methyl-2,4-dioxo-3,4–dihydropyrimidin-1(2H)-yl]methyl}isoxazolidine-5-carboxylate]	–	> 100 µM
–	–	–	18.2 µM	54.5 µM	> 100 µM	47.7 µM	21.5 µM	–	CN1C(=O)[C@@H](O)C[C@@H]1Cn1cc(Cl)c(=O)[nH]c1=O (relative stereo) [trans-15e, trans-5-Chloro-1-[(4-hydroxy-1-methyl-5-oxopyrrolidin-2-yl)methyl]pyrimidine-2,4(1H,3H)-dione]	–	> 100 µM
–	–	–	–	1.19 µM	0.25 µM	0.89 µM	0.95 µM	–	CC(=O)O[C@@]12CO[C@@H]1C[C@H](O)[C@@]1(C)C(=O)[C@H](O)C3=C(C)[C@@H](OC(=O)[C@H](O)[C@@H](NC(=O)OC(C)(C)C)c4ccccc4)C[C@@](O)([C@@H](OC(=O)c4ccccc4)[C@H]21)C3(C)C [Docetaxel, reference compound]	–	25 µM
–	–	–	–	> 100 µM	> 100 µM	> 100 µM	54.8 µM	–	COC(=O)[C@@H]1C[C@H](Cn2ccc(=O)[nH]c2=O)N(C)O1 (relative stereo) [cis-14a, Methyl cis-3-{[2,4-dioxo-3,4–dihydropyrimidin-1(2H)-yl]methyl}-2-methylisoxazolidine-5-carboxylate]	–	> 100 µM
–	–	–	–	> 100 µM	45.7 µM	49.8 µM	47.2 µM	–	CN1C(=O)[C@@H](O)C[C@@H]1Cn1cnc2c(=O)n(C)c(=O)n(C)c21 (relative stereo) [trans-15h, trans-9-[(4-Hydroxy-1-methyl-5-oxopyrrolidin-2-yl)methyl]-1,3-dimethyl-3,9-dihydro-1H-purine-2,6-dione]	–	> 100 µM
–	–	–	–	53.6 µM	60.9 µM	51.2 µM	43.2 µM	–	COC(=O)[C@H]1C[C@H](Cn2cnc3c(=O)n(C)c(=O)n(C)c32)N(C)O1 (relative stereo) [trans-14h, Methyl trans-3-[(1,3-dimethyl-2,6-dioxo-1,2,3,6-tetrahydro-9H-purin-9-yl)methyl]-2-methylisoxazolidine-5-carboxylate]	–	> 100 µM
–	–	–	–	> 100 µM	> 100 µM	90.3 µM	62.6 µM	–	COC(=O)[C@H]1C[C@H](Cn2ccc(=O)[nH]c2=O)N(C)O1 (relative stereo) [trans-14a, Methyl trans-3-{[2,4-dioxo-3,4–dihydropyrimidin-1(2H)-yl]methyl}-2-methylisoxazolidine-5-carboxylate]	–	> 100 µM
42.7 µM	43.5 µM	41.9 µM	38.5 µM	–	–	–	–	–	COC(=O)[C@H]1C[C@H](Cn2cc(Cl)c(=O)[nH]c2=O)N(C)O1 (relative stereo) [trans-14e, Methyl trans-3-{[5-chloro-2,4-dioxo-3,4–dihydropyrimidin-1(2H)-yl]metyl}-2-methylisoxazolidine-5-carboxylate]	> 100 µM	–
–	–	–	–	49.4 µM	> 100 µM	69.3 µM	46.7 µM	–	CN1C(=O)[C@H](O)C[C@H]1CN1CCC(=O)NC1=O [trans-15g, trans-1-[(4-Hydroxy-1-methyl-5-oxopyrrolidin-2-yl)metyl]dihydropyrimidine-2,4(1H,3H)-dione]	–	> 100 µM
–	–	–	–	49.9 µM	90 µM	49.4 µM	52.1 µM	–	CN1C(=O)C(O)C[C@H]1Cn1cc(Br)c(=O)[nH]c1=O (stereo partly drawn) [cis-15d:trans-15d (53:47)]	–	> 100 µM
–	–	–	–	56.3 µM	> 100 µM	42.7 µM	41.3 µM	–	CN1C(=O)[C@@H](O)C[C@H]1CN1CCC(=O)NC1=O [cis-15g, cis-1-[(4-Hydroxy-1-methyl-5-oxopyrrolidin-2-yl)metyl]dihydropyrimidine-2,4(1H,3H)-dione]	–	> 100 µM
–	–	–	–	86.5 µM	53.3 µM	55.6 µM	49.2 µM	–	Cc1cn(C[C@H]2C[C@H](O)C(=O)N2C)c(=O)[nH]c1=O (relative stereo) [trans-15b, trans-1-[(4-Hydroxy-1-methyl-5-oxopyrrolidin-2-yl)methyl]-5-methylpyrimidine-2,4(1H,3H)-dione]	–	> 100 µM
–	–	–	–	58.5 µM	> 100 µM	42.1 µM	24.8 µM	–	CN1C(=O)[C@@H](O)C[C@@H]1Cn1cc(Br)c(=O)[nH]c1=O (relative stereo) [trans-15d, trans-5-Bromo-1-[(4-hydroxy-1-methyl-5-oxopyrrolidin-2-yl)methyl]pyrimidine-2,4(1H,3H)-dione]	–	> 100 µM
58.1 µM	61 µM	48.6 µM	38.3 µM	–	–	–	–	–	COC(=O)[C@H]1C[C@H](CN2CCC(=O)NC2=O)N(C)O1 (relative stereo) [trans-14g, Methyl trans-3-{[2,4-dioxotetrahydropyrimidin-1(2H)-yl]metyl}-2-methylisoxazolidine-5-carboxylate]	> 100 µM	–
40.9 µM	57.9 µM	44.6 µM	42 µM	–	–	–	–	–	COC(=O)[C@@H]1C[C@H](Cn2cc(I)c(=O)[nH]c2=O)N(C)O1 (relative stereo) [cis-14f, Methyl cis-3-{[5-iodo-2,4-dioxo-3,4–dihydropyrimidin-1(2H)-yl]metyl}-2-methylisoxazolidine-5-carboxylate]	–	–

Structure (SMILES)	IC50 [1]	IC50 [2]	IC50 [3]	IC50 [4, 6]	IC50 ([1]; Homo sapiens, HAP1)	IC50 ([2]; Homo sapiens, HCT-116)	IC50 ([3]; Homo sapiens, NCI-H460)	IC50 [4, 7]	IC50 (µM) HCT-116 Colorectal Carcinoma [2]	IC50 [5]	IC50 ([5]; hTERT-RPE1)
COC(=O)[C@H]1C[C@H](Cn2cc(F)c(=O)[nH]c2=O)N(C)O1 (relative stereo) [trans-14c, Methyl trans-3-{[5-fluoro-2,4-dioxo-3,4–dihydropyrimidin-1(2H)-yl]metyl}-2-methylisoxazolidine-5-carboxylate]	> 100 µM	> 100 µM	> 100 µM	49 µM	–	–	–	–	–	> 100 µM	–
CN[C@@H]1C[C@H]2O[C@@](C)([C@@H]1OC)n1c3ccccc3c3c4c(c5c6ccccc6n2c5c31)C(=O)NC4 [Stauroporine, reference compound]	3.55 µM	0.09 µM	11.5 µM	–	–	–	–	–	–	0.25 µM	–
